Data: patent publication US8188090B2, “Naphthylacetic acids” (Hoffman-La Roche Inc., priority 2008, dated 2012)

Molecular target: T1, human CRTH2 (Homo sapiens, UniProt Q9Y5Y4)
T1 sequence (Q9Y5Y4 1-395): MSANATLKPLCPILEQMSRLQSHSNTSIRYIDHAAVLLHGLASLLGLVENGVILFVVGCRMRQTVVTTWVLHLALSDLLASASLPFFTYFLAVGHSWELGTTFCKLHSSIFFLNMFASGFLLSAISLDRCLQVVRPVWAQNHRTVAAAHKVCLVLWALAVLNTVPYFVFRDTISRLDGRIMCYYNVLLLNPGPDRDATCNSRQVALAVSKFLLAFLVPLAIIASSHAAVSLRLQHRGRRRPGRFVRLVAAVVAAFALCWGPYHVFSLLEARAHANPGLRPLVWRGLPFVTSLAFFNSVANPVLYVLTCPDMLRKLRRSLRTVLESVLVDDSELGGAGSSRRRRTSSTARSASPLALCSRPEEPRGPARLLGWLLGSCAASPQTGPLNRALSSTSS
Experiment: Human CRTH2 Receptor Binding Assay (whole cell, [3H]ramatroban)
Set-up: expressed in transfected cells; host or cells: CHO-K1
Details: whole CHO-K1 cells stably expressing human CRTH2 and G-alpha16; 20 nM [3H]ramatroban; 1 hour, room temperature
Description: A whole cell receptor binding assay using [^3H]ramatroban as the competing radioactive ligand was employed to evaluate the compound binding activity to human CRTH2. The radioactive ligand [^3H]ramatroban was synthesized according to Sugimoto et. al. (Eur. J. Pharmacol. 524, 30-37, 2005) to a specific activity of 42 Ci/mmol.
A cell line stably expressing human CRTH2 was established by transfecting CHO-K1 cells with two mammalian expression vectors that harbored human CRTH2 and G-alpha16 cDNAs, respectively, using FuGene® 6 transfection reagent (from Roche). Stable clones expressing CRTH2 were selected by staining each clone with BM16 (BD Pharmingen™ from BD Biosciences, a division of Becton, Dickinson and Company), which is a rat monoclonal antibody to human CRTH2. The cells were maintained as monolayer cultures in Ham's F-12 medium containing 10% fetal bovine serum, 100 units/mL penicillin, 100 μg/mL streptomycin, 2 mM glutamine, 0.5 mg/mL G418 (geneticin) for CRTH2, and 0.2 mg/mL hygromycin-B (for G-alpha 16). For whole cell receptor binding assay, the monolayer cells were rinsed once with PBS (phosphate buffered saline), dissociated using ethylenediaminetetraacetate (Versene™ EDTA from Lonza Inc.), and suspended in PBS containing 10 mM MgCl2 and 0.06% BSA (bovine serum albumin) at 1.5×10^6 cells/mL.
The binding reactions (0.2 mL) were performed in 96-well plates at room temperature in PBS containing 1.5×10^5 cells, 10 mM MgCl2, 0.06% BSA, 20 nM [^3H]ramatroban, and test compound at various concentrations. After 1 hour of binding reactions, the cells were harvested on GF™/B filter microplates (microtiter plates with embedded glass fiber from PerkinElmer, Inc.) and washed 5 times with PBS using a Filtermate™ Harvester (a cell harvester that harvests and washes cells from microplates from PerkinElmer, Inc.). The radioactivities bound to the cells were determined using a microplate scintillation counter (TopCount® NXT, from PerkinElmer, Inc.) after adding 50 μL of Microscint™ 20 scintillation fluid (from PerkinElmer, Inc.) to each well of the filter plates. The radioactivity from non-specific binding was determined by replacing compound with 10 μM of 15(R)-15-methyl PGD2 (from Cayman Chemical Company) in the reaction mixtures. The radioactivity bound to the cells in the absence of compound (total binding) was determined by replacing compound with 0.25% of DMSO (dimethyl sulfoxide) in the reaction mixture. Specific binding data were obtained by subtracting the radioactivity of non-specific binding from each binding data.
The IC50 value is defined as the concentration of the tested compound that is required for 50% inhibition of total specific binding. In order to calculate the IC50 value, the percent inhibition data were determined for 7 concentrations for each compound. The percent inhibition for a compound at each concentration was calculated according to the following formula, [1-(specific binding in the presence of compound)/(total specific binding)]×100. The IC50 value was then obtained by fitting the percent inhibition data to a sigmoidal dose-response (4 parameter logistic) model in the XLfit® software Excel add-in program [from ID Business Solutions Ltd., model 205, where F(x)=(A+(B−A)/(1+((C/x)^D)))].

IC50 | SMILES
19.4 nM | O=C(O)Cc1cc(OC2CCN(C(=O)c3ccccc3F)CC2)c2cc(F)ccc2c1 [Example 5-7, {6-Fluoro-4-[1-(2-fluoro-benzoyl)-piperidin-4-yloxy]-naphthalen-2-yl}-acetic acid]
5 nM | O=C(O)Cc1cc(OC2CCN(C(=O)Nc3ccc(F)cc3)CC2)c2cc(F)ccc2c1 [Example 6-4, {6-Fluoro-4-[1-(4-fluoro-phenylcarbamoyl)-piperidin-4-yloxy]-naphthalen-2-yl}-acetic acid]
9.3 nM | CS(=O)(=O)N1CCC(Oc2cc(CC(=O)O)cc3ccc(F)cc23)CC1 [Example 4-1, [6-Fluoro-4-(1-methanesulfonyl-piperidin-4-yloxy)-naphthalen-2-yl]-acetic acid]
141 nM | CC(C)C(=O)N1CCC(Oc2cc(CC(=O)O)cc3ccc(F)cc23)CC1 [Example 5-3, [6-Fluoro-4-(1-isobutyryl-piperidin-4-yloxy)-naphthalen-2-yl]-acetic acid]
2.7 nM | O=C(O)Cc1cc(OC2CCN(S(=O)(=O)Cc3ccccc3)CC2)c2cc(F)ccc2c1 [Example 4-10, [6-Fluoro-4-(1-phenylmethanesulfonyl-piperidin-4-yloxy)-naphthalen-2-yl]-acetic acid]
45.1 nM | CC(C)(C)OC(=O)N1CCC(Oc2cc(CC(=O)O)cc3ccc(F)cc23)CC1 [Example 3-1, 4-(3-Carboxymethyl-7-fluoro-naphthalen-1-yloxy)-piperidine-1-carboxylic acid tert-butyl ester]
29.8 nM | O=C(O)Cc1cc(OC2CCN(C(=O)c3cccc(F)c3)CC2)c2cc(F)ccc2c1 [Example 5-8, {6-Fluoro-4-[1-(3-fluoro-benzoyl)-piperidin-4-yloxy]-naphthalen-2-yl}-acetic acid]
5 nM | O=C(O)Cc1cc(OC2CCN(S(=O)(=O)c3cccc(F)c3)CC2)c2cc(F)ccc2c1 [Example 4-7, {6-Fluoro-4-[1-(3-fluoro-benzenesulfonyl)-piperidin-4-yloxy]-naphthalen-2-yl}-acetic acid]
30.5 nM | CC(C)S(=O)(=O)N1CCC(Oc2cc(CC(=O)O)cc3ccc(F)cc23)CC1 [Example 4-3, {6-Fluoro-4-[1-(propane-2-sulfonyl)-piperidin-4-yloxy]-naphthalen-2-yl}-acetic acid]
24.5 nM | CCNC(=O)N1CCC(Oc2cc(CC(=O)O)cc3ccc(F)cc23)CC1 [Example 6-1, [4-(1-Ethylcarbamoyl-piperidin-4-yloxy)-6-fluoro-naphthalen-2-yl]-acetic acid]
4.3 nM | O=C(O)Cc1cc(OC2CCN(C(=O)Nc3ccccc3F)CC2)c2cc(F)ccc2c1 [Example 6-2, {6-Fluoro-4-[1-(2-fluoro-phenylcarbomoyl)-piperidin-4-yloxy]-naphthalen-2-yl}-acetic acid]

Continued, molecule first:

SMILES | IC50
Cc1c(CC(=O)O)cc2ccc(F)cc2c1C(=O)N1CCN(c2ccc(F)cc2)CC1 [Example 2-1, {6-Fluoro-4-[4-(4-fluoro-phenyl)-piperazine-1-carbonyl]-3-methyl-naphthalen-2-yl}-acetic acid] | 18.2 nM
Cc1c(CC(=O)O)cc2ccc(F)cc2c1C(=O)N1CCN(S(C)(=O)=O)CC1 [Example 1-3, [6-Fluoro-4-(4-methanesulfonyl-piperazine-1-carbonyl)-3-methyl-naphthalen-2-yl]-acetic acid] | 21.2 nM
Cc1c(CC(=O)O)cc2ccc(F)cc2c1C(=O)N1CCN(c2ccccc2Cl)CC1 [Example 2-20, {4-[4-(2-Chloro-phenyl)-piperazine-1-carbonyl]-6-fluoro-3-methyl-naphthalen-2-yl}-acetic acid] | 127 nM
CCS(=O)(=O)N1CCN(C(=O)c2cc(CC(=O)O)cc3ccc(F)cc23)CC1 [Example 1-2, [4-(4-Ethanesulfonyl-piperazine-1-carbonyl)-6-fluoro-naphthalen-2-yl]-acetic acid] | 7.2 nM
O=C(O)Cc1cc(C(=O)N2CCN(S(=O)(=O)c3ccccc3)CC2)c2cc(OC(F)(F)F)ccc2c1 [Example 1-19, [4-(4-Benzenesulfonyl-piperazine-1-carbonyl)-6-trifluoromethoxy-naphthalen-2-yl]-acetic acid] | 1.7 nM
CCCS(=O)(=O)N1CCN(C(=O)c2cc(CC(=O)O)cc3ccc(F)cc23)CC1 [Example 1-7, {6-Fluoro-4-[4-(propane-1-sulfonyl)-piperazine-1-carbonyl]-naphthalen-2-yl}-acetic acid] | 6.5 nM
Cc1c(CC(=O)O)cc2ccc(F)cc2c1C(=O)N1CCN(S(=O)(=O)C(F)(F)F)CC1 [Example 1-5, [6-Fluoro-3-methyl-4-(4-trifluoromethanesulfonyl-piperazine-1-carbonyl)-naphthalen-2-yl]-acetic acid] | 7.6 nM
Cc1c(CC(=O)O)cc2ccc(F)cc2c1C(=O)N1CCN(c2ncccn2)CC1 [Example 2-5, [6-Fluoro-3-methyl-4-(4-pyrimidin-2-yl-piperazine-1-carbonyl)-naphthalen-2-yl]-acetic acid] | 276 nM
Cc1c(CC(=O)O)cc2ccc(F)cc2c1C(=O)N1CCN(c2ccc(Cl)cc2)CC1 [Example 2-18, {4-[4-(4-Chloro-phenyl)-piperazine-1-carbonyl]-6-fluoro-3-methyl-naphthalen-2-yl}-acetic acid] | 9.4 nM
Cc1c(CC(=O)O)cc2ccc(F)cc2c1C(=O)N1CC2(C1)CN(S(=O)(=O)c1ccccc1)C2 [Example 1-10, [4-(6-Benzenesulfonyl-2,6-diaza-spiro[3.3]heptane-2-carbonyl)-6-fluoro-3-methyl-naphthalen-2-yl]-acetic acid] | 207 nM
Cc1c(CC(=O)O)cc2ccc(F)cc2c1C(=O)N1CCN(S(=O)(=O)Cc2ccccc2)CC1 [Example 1-13, [6-Fluoro-3-methyl-4-(4-phenylmethanesulfonyl-piperazine-1-carbonyl)-naphthalen-2-yl]-acetic acid] | 5.4 nM
O=C(O)Cc1cc(C(=O)N2CCN(S(=O)(=O)c3ccccc3)CC2)c2cc(C(F)(F)F)ccc2c1 [Example 1-18, [4-(4-Benzenesulfonyl-piperazine-1-carbonyl)-6-trifluoromethyl-naphthalen-2-yl]-acetic acid] | 6 nM
Cc1cccc(N2CCN(C(=O)c3c(C)c(CC(=O)O)cc4ccc(F)cc34)CC2)c1 [Example 2-6, [6-Fluoro-3-methyl-4-(4-m-tolyl-piperazine-1-carbonyl)-naphthalen-2-yl]-acetic acid] | 81.5 nM
Cc1c(CC(=O)O)cc2ccc(F)cc2c1C(=O)N1CCN(c2ccc(F)cc2F)CC1 [Example 2-13, {4-[4-(2,4-Difluoro-phenyl)-piperazine-1-carbonyl]-6-fluoro-3-methyl-naphthalen-2-yl}-acetic acid] | 139 nM
Cc1ccc(N2CCN(C(=O)c3c(C)c(CC(=O)O)cc4ccc(F)cc34)CC2)cc1 [Example 2-16, [6-Fluoro-3-methyl-4-(4-p-tolyl-piperazine-1-carbonyl)-naphthalen-2-yl]-acetic acid] | 26.8 nM
CCS(=O)(=O)N1CCN(C(=O)c2c(C)c(CC(=O)O)cc3ccc(F)cc23)CC1 [Example 1-1, [4-(4-Ethanesulfonyl-piperazine-1-carbonyl)-6-fluoro-3-methyl-naphthalen-2-yl]-acetic acid] | 19.2 nM
Cc1c(CC(=O)O)cc2ccc(F)cc2c1C(=O)N1CCN(S(=O)(=O)c2ccc(F)c(F)c2)CC1 [Example 1-15, {4-[4-(3,4-Difluoro-benzenesulfonyl)-piperazine-1-carbonyl]-6-fluoro-3-methyl-naphthalen-2-yl}-acetic acid] | 2.6 nM
